{"source": "patent US20230382915A1", "about": "“GCN2 AND PERK KINASE INHIBITORS AND METHODS OF USE THEREOF” (Deciphera Pharmaceuticals, LLC, priority 2021, published 2023)", "key": {"CCRF-CEM leukemia cells": {"tested_on": "CCRF-CEM leukemia cells", "test": "CCRF-CEM ASNase cell proliferation assay", "type": "cell-based", "conditions": "Homo sapiens, 1 mU/mL ASNase, 72 h", "description": "CCRF-CEM leukemia cells (catalog #CCL-116) were obtained from the American Type Culture Collect (ATTC, Manassas, VA). Cells were grown in RPMI-1640 medium supplemented with 10% heat-inactivated fetal bovine serum (Invitrogen, Carlsbad, CA) and 1% Penicillin/Streptomycin/L-Glutamine at 37° C., 5% CO2, and 95% humidity. Cells were expanded until reaching one million cells per mL at which time they are subcultured or harvested for assay use. Ten thousand cells per well in 200 μL RPMI-1640 supplemented with 10% heat-inactivated fetal bovine serum and 1% Penicillin/Streptomycin were dispensed into a 96-well black clear bottom plate. A serial dilution of test compound and 1 mU/mL ASNase was added in triplicate and plates were incubated for 72 h at 37° C., 5% CO2, and 95% humidity. At the end of the incubation, 40 μL of a […] solution of resazurin (Sigma, St. Louis, MO) in PBS was added to each well of the plate and plates were incubated for an additional 6 h at 37° C., 5% CO2, and 95% humidity. Plates were read on a Synergy2 or equivalent reader (Biotek, Winooski VT) using an excitation of 540 nm and an emission of 600 nm. Data was analyzed using GraphPad Prism software (GraphPad, San Diego, CA) to calculate IC50 values."}, "PERK enzyme [1]": {"target": "T1, PERK enzyme (Homo sapiens (Human), UniProt Q9NZJ5)", "test": "Recombinant PERK activation assay", "type": "biochemical", "conditions": "FIG. 9B", "description": "To measure Compound 2-mediated PERK modulation, 200 nM PERK enzyme (Enzo, Farmingdale, NY) was incubated with Compound 2 titer for 30 min at RT. Following incubation, 200 nM substrate (GFP-eIF2α) (ThermoFisher Scientific, Waltham, MA) and 1 mM ATP was added to the mixture and incubated for 60 min at RT. Reaction was stopped by the addition of 10 mM EDTA and phosphorylated eiF2a substrate was detected using 2 nM LanthaScreen Tb-anti-peIF2α (pSer52) antibody (ThermoFisher Scientific, Waltham, MA) then incubated in the dark. After a 60 min incubation at room temperature, TR-FRET was monitored using an excitation wavelength of 340 nm and emission wavelengths of 490 nm and 520 nm."}, "[2]": {"tested_on": "ATF4 in thapsigargin stimulated CCRF-CEM cells (PERK)", "test": "CCRF-CEM thapsigargin (TG) ATF4 ELISA", "type": "cell-based", "conditions": "Homo sapiens, 1 μM thapsigargin", "description": "CCRF-CEM leukemia cells (catalog #CCL-116) were obtained from the American Type Culture Collection (ATTC, Manassas, VA). Briefly, cells were grown in RPMI-1640 medium supplemented with 10% heat-inactivated fetal bovine serum (Invitrogen, Carlsbad, CA) and 1% Penicillin/Streptomycin/L-Glutamine at 37° C., 5% CO2, and 95% humidity. Cells were expanded until reaching one million cells per mL at which time they were subcultured or harvested for assay use. One million five hundred thousand cells per well in 1 mL complete growth medium were dispensed into 12-well plates and incubated overnight. A serial dilution of test compound was added and cells were incubated at 37° C., 5% CO2, and 95% for three hours, then 1 μM thapsigargin was added and cells were incubated for an additional hour at 37° C., 5% CO2, and 95%. Cells were lysed then ATF4 levels were measured using an ELISA assay (Proteintech, Rosemont, IL). Absorbance was measured at 450 nm and 544 nM using a Synergy2 or equivalent reader (Biotek, Winooski VT). Data was analyzed using PRISM software (Graphpad, San Diego, CA) to calculate IC50 values."}, "[3]": {"tested_on": "HT-1080 fibrosarcoma xenograft", "test": "HT-1080 xenograft efficacy model", "type": "in vivo, mice", "conditions": "10 mg/kg BID, 14 days of dosing", "description": "The HT-1080 xenograft model was performed in compliance with all the laws, regulations and guidelines of the National Institutes of Health (NIH) and with the approval of the Animal Care and Use Committee of Labcorp (Ann Arbor, MI), an AAALAC accredited facility. Food and water were provided ad libitum. […] Female nude mice (6-7 weeks old) were inoculated subcutaneously just below the right high axilla with two million cells in Dulbecco's Phosphate Buffered Saline, using a 27-gauge needle and syringe. When tumor burdens reached 100 mm 3 on average on day 6, mice were randomly assigned into groups such that the mean tumor burden for all groups was within 10% of the overall mean tumor burden for the study population. […] Tumor volume and body weight were measured three time per week. Tumor burden (mg) was estimated from caliper measurements by the formula: tumor burden (mg=mm 3)=(length×width 2)/2."}, "PERK enzyme [4]": {"target": "T1, PERK enzyme", "test": "Biochemical assay for PERK (coupled pyruvate kinase/lactate dehydrogenase)", "conditions": "1 mM ATP", "description": "Activity of PERK kinase was determined spectroscopically using a coupled pyruvate kinase/lactate dehydrogenase assay that continuously monitors the ATP hydrolysis-dependent oxidation of NADH (e.g., Schindler et al. Science (2000) 289: 1938-1942). Assays were conducted in 384-well plates ([…] final volume) using 10 nM PERK (from Beryllium), 0.25 mg/mL Myelin Basic Protein substrate, 1.5 units pyruvate kinase, 2.1 units lactate dehydrogenase, 1 mM phosphoenol pyruvate, 0.28 mM NADH and 1 mM ATP in assay buffer (100 mM Tris, pH 7.5, 15 mM MgCl2, 0.5 mM DTT, 0.004% (w/v) BSA, and 0.004% Triton X-100). Inhibition of PERK was measured by adding serial diluted test compound (final assay concentration of 1% DMSO). A decrease in absorption at 340 nm was monitored continuously for 6 hours at 30° C. on a multi-mode microplate reader (BioTek). The reaction rate was calculated using the 2-3 h time frame. The reaction rate at each concentration of compound was converted to percent inhibition using controls (i.e., reaction with no test compound and reaction with a known inhibitor) and IC50 values were calculated using software routines in Prism (GraphPad software)."}}}
{"smiles": "Cn1cc(-c2cccc(NS(=O)(=O)c3cc(Cl)cc(CO)c3Cl)c2F)c2c(N)ncnc21", "note": "[Example 2, N-(3-(4-amino-7-methyl-7H-pyrrolo[2,3-d]pyrimidin-5-yl)-2-fluorophenyl)-2,5-dichloro-3-(hydroxymethyl)benzenesulfonamide]", "values": [{"measurement": "IC50", "setting": "CCRF-CEM leukemia cells", "value": "≤ 100", "unit": "nM"}, {"measurement": "concentrations at which PERK enzyme is activated", "setting": "PERK enzyme [1]", "value": "0.05 to 6", "unit": "nM"}, {"measurement": "concentrations at which recombinant PERK activity is inhibited", "setting": "PERK enzyme [1]", "value": "above 3 μM"}, {"measurement": "activation of PERK enzyme, % of control", "setting": "PERK enzyme [1]; at 0.05-6 nM", "value": "up to 250 % of control"}, {"measurement": "IC50", "setting": "[2]", "value": "≤ 100", "unit": "nM"}, {"measurement": "mean tumor growth inhibition", "setting": "[3]", "value": 50, "unit": "%"}, {"measurement": "IC50", "setting": "PERK enzyme [4]", "value": "≤ 100", "unit": "nM"}]}
